Data: ChEMBL document CHEMBL3046904, “Synthesis, characterization, bioactivity, and POM analyses of isothiochromeno[3,4-e][1,2]oxazines” (2013)

What was measured:
Format in all cases: functional
MCF7 = experiment: Cytotoxicity against Homo sapiens (human) MCF7 assessed as cell growth at 10^-4 M after 48 hr by Alamar Blue assay; conditions: MCF7, 48 h, read-out: Activity
SF-268 = experiment: Cytotoxicity against Homo sapiens (human) SF268 assessed as cell growth at 10^-4 M after 48 hr by Alamar Blue assay; conditions: SF-268, 48 h, read-out: Activity
NCI-H460 = experiment: Cytotoxicity against Homo sapiens (human) NCI-H460 assessed as cell growth at 10^-4 M after 48 hr by Alamar Blue assay; conditions: NCI-H460, 48 h, read-out: Activity

| SMILES | growth at 100 µM (MCF7) [%] | growth at 100 µM (SF-268) [%] | growth at 100 µM (NCI-H460) [%] |
| --- | --- | --- | --- |
| Cc1ccc(C2=C3SC=c4ccccc4=C3ON=C2c2ccccc2)cc1 | 41 | 69 | 94 |
| COc1ccc(C2=C3SC=c4ccccc4=C3ON=C2c2ccc(Cl)cc2)cc1 | 51 | 102 | 85 |
| C1=c2ccccc2=C2ON=C(c3ccccc3)C(c3ccccc3)=C2S1 | 104 | 97 | 94 |
| O=[N+]([O-])c1ccc(C2=C3SC=c4ccccc4=C3ON=C2c2ccc(Cl)cc2)cc1 | 85 | 104 | 97 |
| COc1ccc(C2=NOC3=c4ccccc4=CSC3=C2c2ccc(OC)cc2)cc1 | 116 | 105 | 102 |
| Cc1ccc(C2=NOC3=c4ccccc4=CSC3=C2c2ccccc2)cc1 | 51 | 66 | 92 |
| COc1ccc(C2=NOC3=c4ccccc4=CSC3=C2c2ccc(C)cc2)cc1 | 86 | 97 | 96 |
| Cc1ccc(C2=C3SC=c4ccccc4=C3ON=C2c2ccc([N+](=O)[O-])cc2)cc1 | 97 | 83 | 99 |
